Experimental data reported in US7351703B2, “Sulfonylamino carboxylic acid N-arylamides as guanylate cyclase activators” (Sanofi-Aventis Deutschland GmbH, priority 1999, dated 2008).

Tests used:
[1] = target: T1, soluble guanylate cyclase (sGC) (Bos taurus, UniProt P16068); assay: Activation of soluble guanylate cyclase (cGMP enzyme immunoassay); format: biochemical; details: sGC isolated from bovine lung, stimulation of basal enzyme activity vs solvent control
T1 construct: The sGC employed had been isolated from bovine lung; from tissue; host or cells: bovine lung
T1 sequence (P16068 1-619): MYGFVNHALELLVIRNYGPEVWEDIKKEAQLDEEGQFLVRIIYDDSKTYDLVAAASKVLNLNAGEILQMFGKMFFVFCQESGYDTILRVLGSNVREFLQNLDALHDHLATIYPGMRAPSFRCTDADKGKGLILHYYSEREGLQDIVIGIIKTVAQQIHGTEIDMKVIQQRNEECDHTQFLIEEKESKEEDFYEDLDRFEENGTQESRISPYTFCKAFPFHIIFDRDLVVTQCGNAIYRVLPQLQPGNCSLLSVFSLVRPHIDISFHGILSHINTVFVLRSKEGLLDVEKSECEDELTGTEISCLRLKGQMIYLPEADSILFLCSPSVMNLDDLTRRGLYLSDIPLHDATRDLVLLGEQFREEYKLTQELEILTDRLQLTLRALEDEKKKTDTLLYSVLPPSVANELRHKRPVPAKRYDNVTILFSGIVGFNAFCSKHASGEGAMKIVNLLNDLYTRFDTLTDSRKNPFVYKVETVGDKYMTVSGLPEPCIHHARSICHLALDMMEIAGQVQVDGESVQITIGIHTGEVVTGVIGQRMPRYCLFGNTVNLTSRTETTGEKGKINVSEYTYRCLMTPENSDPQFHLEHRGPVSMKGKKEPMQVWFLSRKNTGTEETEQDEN
T1 sequence (P19687 1-691 partner): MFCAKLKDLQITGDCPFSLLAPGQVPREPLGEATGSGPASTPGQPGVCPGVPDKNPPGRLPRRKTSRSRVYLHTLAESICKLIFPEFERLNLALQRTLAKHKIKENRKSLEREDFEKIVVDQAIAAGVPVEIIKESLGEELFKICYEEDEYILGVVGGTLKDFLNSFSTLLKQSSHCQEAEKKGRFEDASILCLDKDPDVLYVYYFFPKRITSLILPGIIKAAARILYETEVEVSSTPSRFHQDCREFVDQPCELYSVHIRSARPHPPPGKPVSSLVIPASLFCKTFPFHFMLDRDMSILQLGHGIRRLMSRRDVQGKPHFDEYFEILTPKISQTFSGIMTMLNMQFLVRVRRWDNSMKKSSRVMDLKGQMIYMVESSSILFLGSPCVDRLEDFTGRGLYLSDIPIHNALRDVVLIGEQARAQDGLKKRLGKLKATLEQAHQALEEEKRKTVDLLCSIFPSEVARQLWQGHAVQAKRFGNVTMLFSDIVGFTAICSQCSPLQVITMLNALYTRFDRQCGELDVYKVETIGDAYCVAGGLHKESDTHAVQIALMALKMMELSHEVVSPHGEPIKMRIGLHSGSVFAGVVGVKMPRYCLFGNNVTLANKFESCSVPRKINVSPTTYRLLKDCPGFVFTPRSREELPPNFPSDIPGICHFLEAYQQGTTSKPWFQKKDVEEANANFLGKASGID
Protocol: The activation of soluble guanylate cyclase (sGC), which catalyzes the conversion of guanosine triphosphate (GTP) to cyclic guanosine monophosphate (cGMP) and pyrophosphate, by the compounds according to the invention was quantified with the aid of an enzyme immunoassay (EIA) from Amersham. For this, the test substances were first incubated with sGC in microtiter plates and then the quantity of the resulting cGMP was determined.
The sGC employed had been isolated from bovine lung (see Methods in Enzymology, Volume 195, p. 377). The test solutions (100 μl per well) contained 50 mM triethanolamine (TEA) buffer (pH 7.5), 3 mM MgCl2, 3 mM reduced glutathione (GSH), 0.1 mM GTP, 1 mM 3-isobutyl-1-methylxanthine (IBMX), suitably diluted enzyme solution and the test substance or, in the control experiments, solvent. The test substances were dissolved in dimethyl sulfoxide (DMSO) and the solution was diluted with DMSO/water such that the final concentration c of test substance in the test batch had the value indicated below. The DMSO concentration in the test batch was 5% (v/v). The reaction was started by addition of the sGC. The reaction mix was incubated at 37° C. for 15 to 20 minutes and then stopped by ice-cooling and addition of the stop reagent (50 mM EDTA, pH 8.0). An aliquot of 50 μl was taken and employed for the determination of the cGMP content using the acetylation protocol of the Amersham cGMP EIA kit. The absorption of the samples was measured at 450 nm (reference wavelength 620 nm) in a microtiter plate reading apparatus. The cGMP concentration was determined by means of a calibration curve, which was obtained under the same experimental conditions. The activation of the sGC by a test substance is indicated as n-fold stimulation of the basal enzyme activity which was found in the control experiments (with solvent instead of test substance) (calculated according to the formula n-fold stimulation=[cGMP]test substance/[cGMP]control).

CCOC(=O)c1ccc(NC(=O)c2cc(Cl)ccc2NS(=O)(=O)c2ccc(Cl)cc2)cc1 [Example 14, Ethyl 4-(5-chloro-2-(4-chlorophenylsulfonylamino)benzoylamino)benzoate]
n-fold stimulation ([1]; concentration c 100 μM): 1.7 n-fold
melting point: 185 °C

O=C(Nc1ccc(Oc2ccccc2)cc1)c1cc(Cl)ccc1NS(=O)(=O)c1ccc(Cl)cc1 [Example 5, 5-Chloro-2-(4-chlorophenylsulfonylamino)-N-(4-phenoxyphenyl)benzamide]
n-fold stimulation ([1]; concentration c 10 μM): 9.3 n-fold
melting point: 205 °C

O=C(Nc1cccc(C(F)(F)F)c1)c1cc(Cl)ccc1NS(=O)(=O)c1ccc(Cl)cc1 [Example 4, 5-Chloro-2-(4-chlorophenylsulfonylamino)-N-(3-trifluoromethylphenyl)benzamide]
n-fold stimulation ([1]; concentration c 25 μM): 5.5 n-fold
melting point: 216 °C

O=C(Nc1ccc(N2CCOCC2)cc1)c1cc(Cl)ccc1NS(=O)(=O)c1ccc(Cl)cc1 [Example 21, 5-Chloro-2-(4-chlorophenylsulfonylamino)-N-(4-(morpholin-4-yl)phenyl)benzamide]
n-fold stimulation ([1]; concentration c 50 μM): 8 n-fold
melting point: 228.5 °C

5-Chloro-2-(4-chlorophenylsulfonylamino)-N-(quinolinsyl)benzamide [Example 111]
n-fold stimulation ([1]; concentration c 50 μM): 6.1 n-fold

CC(C)c1ccc(NC(=O)c2cc(Cl)ccc2NS(=O)(=O)c2ccc(Cl)cc2)cc1 [Example 16, 5-Chloro-2-(4-chlorophenylsulfonylamino)-N-(4-isopropylphenyl)benzamide]
n-fold stimulation ([1]; concentration c 100 μM): 4.1 n-fold
melting point: 188 °C

O=C(Nc1cccc(Cl)c1)c1cc(Cl)ccc1NS(=O)(=O)c1ccc(Cl)cc1 [Example 10, 5-Chloro-2-(4-chlorophenylsulfonylamino)-N-(3-chlorophenyl)benzamide]
n-fold stimulation ([1]; concentration c 100 μM): 1.7 n-fold
melting point: 228 °C

O=C(Nc1ccc(N2CCCC2=O)cc1)c1cc(Cl)ccc1NS(=O)(=O)c1ccccc1 [Example 25]
n-fold stimulation ([1]; concentration c 50 μM): 2.4 n-fold

O=C(Nc1ccc(Oc2ccc(Cl)c3ccccc23)c(Cl)c1)c1cc(Cl)ccc1NS(=O)(=O)c1ccc(Cl)cc1 [Example 19, 5-Chloro-2-(4-chlorophenylsulfonylamino)-N-(3-chloro-4-(4-chloronaphthalene-1-yloxy)phenyl)benzamide]
n-fold stimulation ([1]; concentration c 100 μM): 26.3 n-fold

O=C(Nc1ccccc1C(F)(F)F)c1cc(Cl)ccc1NS(=O)(=O)c1ccc(Cl)cc1 [Example 30, 5-Chloro-2-(4-chlorophenylsulfonylamino)-N-(2-trifluoromethylphenyl)benzamide]
melting point: 182 °C

COc1ccc(NC(=O)c2cc(Cl)ccc2NS(=O)(=O)c2ccc(Cl)cc2)cc1 [Example 11, 5-Chloro-2-(4-chlorophenylsulfonylamino)-N-(4-methoxyphenyl)benzamide]
n-fold stimulation ([1]; concentration c 100 μM): 1.8 n-fold
melting point: 190 °C

O=C(Nc1cc(C(F)(F)F)cc(C(F)(F)F)c1)c1cc(Cl)ccc1NS(=O)(=O)c1ccc(Cl)cc1 [Example 28, 5-Chloro-2-(4-chlorophenylsulfonylamino)-N-(3,5-bis-trifluoromethylphenyl)benzamide]
melting point: 182.5 °C

COc1cc(NC(=O)c2cc(Cl)ccc2NS(=O)(=O)c2ccc(Cl)cc2)cc(OC)c1 [Example 32, 5-Chloro-2-(4-chlorophenylsulfonylamino)-N-(3,5-dimethoxyphenyl)benzamide]
melting point: 74.5 °C

COc1ccc(S(=O)(=O)Nc2ccc(Cl)cc2C(=O)Nc2ccc(F)cc2)cc1Cl [Example 17]
n-fold stimulation ([1]; concentration c 100 μM): 2 n-fold

N#CC(c1ccccc1)c1ccc(NC(=O)c2cc(Cl)ccc2NS(=O)(=O)c2ccc(Cl)cc2)cc1 (centres unmarked) [Example 97, 5-Chloro-2-(4-chlorophenylsulfonylamino)-N-(4-(cyanophenylmethyl)phenyl)benzamide]
n-fold stimulation ([1]; concentration c 12.5 μM): 4.9 n-fold

COc1cccc(NC(=O)c2cc(Cl)ccc2NS(=O)(=O)c2ccc(Cl)cc2)c1 [Example 31, 5-Chloro-2-(4-chlorophenylsulfonylamino)-N-(3-methoxyphenyl)benzamide]
melting point: 163.5 °C

O=C(Nc1ccc(C(=O)N2CCOCC2)cc1)c1cc(Cl)ccc1NS(=O)(=O)c1ccc(Cl)cc1 [Example 33, 5-Chloro-2-(4-chlorophenylsulfonylamino)-N-(4-(morpholine-4-carbonyl)phenyl)benzamide]
n-fold stimulation ([1]; concentration c 50 μM): 3.8 n-fold

O=C(Nc1ccc(Cl)c(Cl)c1)c1cc(Cl)ccc1NS(=O)(=O)c1ccc(Cl)cc1 [Example 8, 5-Chloro-2-(4-chlorophenylsulfonylamino)-N-(3,4-dichlorophenyl)benzamide]
n-fold stimulation ([1]; concentration c 10 μM): 5.3 n-fold

COc1ccc(C(F)(F)F)cc1NC(=O)c1cc(Cl)ccc1NS(=O)(=O)c1ccc(Cl)cc1 [Example 29, 5-Chloro-2-(4-chlorophenylsulfonylamino)-N-(2-methoxy-5-trifluoromethylphenyl)benzamide]
melting point: 164.5 °C

Cc1cncc(NC(=O)c2cc(Cl)ccc2NS(=O)(=O)c2ccc(Cl)cc2)n1 [Example 26, 5-Chloro-2-(4-chlorophenylsulfonylamino)-N-(5-methylpyrazin-3-yl)benzamide]
melting point: 248 °C

CCN(CC)Cc1cc(NC(=O)c2cc(Cl)ccc2NS(=O)(=O)c2ccc(Cl)cc2)ccc1O [Example 93, 5-Chloro-2-(4-chlorophenylsulfonylamino)-N-(3-diethylaminomethyl-4-hydroxyphenyl)benzamide]
n-fold stimulation ([1]; concentration c 50 μM): 1.5 n-fold

O=C(O)Cc1cccc(NC(=O)c2cc(Cl)ccc2NS(=O)(=O)c2ccc(Cl)cc2)c1 [Example 108, (3-(5-Chloro-2-(4-chlorophenylsulfonylamino)benzoylamino)phenyl)acetic acid]
n-fold stimulation ([1]; concentration c 50 μM): 2.5 n-fold

O=C(Nc1cc(-c2cccs2)n[nH]1)c1cc(Cl)ccc1NS(=O)(=O)c1ccc(Cl)cc1 [Example 27, 5-Chloro-2-(4-chlorophenylsulfonylamino)-N-(3-(2-thienyl)pyrazol-5-yl)benzamide]
melting point: 117 °C

O=C(O)CNC(=O)c1ccc(NC(=O)c2cc(Cl)ccc2NS(=O)(=O)c2ccc(Cl)cc2)cc1 [Example 102, (4-(5-Chloro-2-(4-chlorophenylsulfonylamino)benzoylamino)benzoylamino)acetic acid]
n-fold stimulation ([1]; concentration c 50 μM): 1.7 n-fold

O=C(Nc1ccc(Nc2ccccc2)cc1)c1cc(Cl)ccc1NS(=O)(=O)c1ccc(Cl)cc1 [Example 22, 5-Chloro-2-(4-chlorophenylsulfonylamino)-N-(4-(phenylamino)phenyl)benzamide]
melting point: 192.5 °C
